Assay results reported in ChEMBL document CHEMBL4715896, “A styrylpyrone dimer isolated from Aniba heringeri causes apoptosis in MDA-MB-231 triple-negative breast cancer cells” (Bioorg Med Chem, 2021).
Active and inactive are the calls of the source. The calls are words filed in the database; no cut-off is given here.

Key:
[1] = test system: PC-3; test: Growth inhibition of human PC3 cells incubated for 48 hrs by sulforhodamine B assay; format: functional
[2] = test system: 786-0; test: Growth inhibition of human 786-0 cells incubated for 48 hrs by sulforhodamine B assay; format: functional
[3] = test system: HT-29; test: Growth inhibition of human HT-29 cells incubated for 48 hrs by sulforhodamine B assay; format: functional
[4] = test system: MCF7; test: Growth inhibition of human MCF7 cells incubated for 48 hrs by sulforhodamine B assay; format: functional
[5] = test system: MDA-MB-231; test: Growth inhibition of human MDA-MB-231 cells incubated for 48 hrs by sulforhodamine B assay; format: functional
[6] = Cytotoxicity against mouse NIH/3T3 cells assessed as growth inhibition after 48 hrs by SRB assay; format: cell-based, NIH3T3
[7] = Selectivity index, ratio of GI50 for cytotoxicity against mouse NIH/3T3 cells to GI50 for human PC3 cells; format: toxicity, cell-based; conditions: NIH/3T3 cells and PC3 cells, read-out: RatioGI50
[8] = Selectivity index, ratio of GI50 for cytotoxicity against mouse NIH/3T3 cells to GI50 for human 786-0 cells
[9] = Selectivity index, ratio of GI50 for cytotoxicity against mouse NIH/3T3 cells to GI50 for human HT-29 cells; format: toxicity, cell-based; conditions: NIH/3T3 cells and HT-29 cells, read-out: RatioGI50
[10] = Selectivity index, ratio of GI50 for cytotoxicity against mouse NIH/3T3 cells to GI50 for human MCF7 cells; format: toxicity, cell-based; conditions: NIH/3T3 cells and MCF7 cells, read-out: RatioGI50
[11] = Selectivity index, ratio of GI50 for cytotoxicity against mouse NIH/3T3 cells to GI50 for human MDA-MB-231 cells; format: toxicity, cell-based; conditions: NIH/3T3 cells and MDA-MB-231 cells, read-out: RatioGI50
[12] = test system: MDA-MB-231; test: Induction of apoptosis in human MDA-MB-231 cells assessed as viable cells at 63 uM after 48 hrs by Annexin-V/7-AAD staining based flow cytometry relative to control; format: functional; conditions: read-out: Activity
[13] = test system: MDA-MB-231; test: Induction of apoptosis in human MDA-MB-231 cells assessed as apoptotic cells at 63 uM after 48 hrs by Annexin-V/7-AAD staining based flow cytometry relative to control; format: functional
[14] = test system: MDA-MB-231; test: Induction of apoptosis in human MDA-MB-231 cells assessed as late apoptotic cells at 63 uM after 48 hrs by Annexin-V/7-AAD staining based flow cytometry relative to control; format: functional
[15] = test system: MDA-MB-231; test: Induction of apoptosis in human MDA-MB-231 cells assessed as necrotic cells at 63 uM after 48 hrs by Annexin-V/7-AAD staining based flow cytometry relative to control; format: functional
[16] = test system: MDA-MB-231; test: Induction of apoptosis in human MDA-MB-231 cells assessed as viable cells at 63 uM after 72 hrs by Annexin-V/7-AAD staining based flow cytometry relative to control; format: functional; conditions: read-out: Activity
[17] = test system: MDA-MB-231; test: Induction of apoptosis in human MDA-MB-231 cells assessed as apoptotic cells at 63 uM after 72 hrs by Annexin-V/7-AAD staining based flow cytometry relative to control; format: functional
[18] = test system: MDA-MB-231; test: Induction of apoptosis in human MDA-MB-231 cells assessed as late apoptotic cells at 63 uM after 72 hrs by Annexin-V/7-AAD staining based flow cytometry relative to control; format: functional
[19] = test system: MDA-MB-231; test: Induction of apoptosis in human MDA-MB-231 cells assessed as necrotic cells at 63 uM after 72 hrs by Annexin-V/7-AAD staining based flow cytometry relative to control; format: functional
[20] = test system: MDA-MB-231; test: Induction of apoptosis in human MDA-MB-231 cells assessed as formation of apoptotic bodies after 48 hrs by Hoechst 33342 staining based analysis relative to control; format: functional
[21] = test system: MDA-MB-231; test: Induction of apoptosis in human MDA-MB-231 cells assessed as formation of apoptotic bodies after 72 hrs by Hoechst 33342 staining based analysis relative to control; format: functional
[22] = test system: MDA-MB-231; test: Induction of morphological changes in human MDA-MB-231 cells assessed as proliferation arrest at 4.4 uM after 48 hrs by acridine orange/ethidium bromide double staining-based fluorescence/phase contrast microscopic analysis; format: functional, cell-based
[23] = test system: MDA-MB-231; test: Induction of morphological changes in human MDA-MB-231 cells assessed as loss of elongated spindle morphology at 4.4 uM after 48 hrs by acridine orange/ethidium bromide double staining-based fluorescence/phase contrast microscopic analysis; format: functional, cell-based
[24] = test system: MDA-MB-231; test: Induction of morphological changes in human MDA-MB-231 cells assessed as reduction in cell contact at 4.4 uM after 48 hrs by acridine orange/ethidium bromide double staining-based fluorescence/phase contrast microscopic analysis; format: functional
[25] = test system: MDA-MB-231; test: Induction of morphological changes in human MDA-MB-231 cells assessed as reduction in cytoplasmic extension at 4.4 uM after 48 hrs by acridine orange/ethidium bromide double staining-based fluorescence/phase contrast microscopic analysis; format: functional, cell-based
[26] = test system: MDA-MB-231; test: Induction of morphological changes in human MDA-MB-231 cells assessed as formation of coarse clusters at 4.4 uM after 72 hrs by acridine orange/ethidium bromide double staining-based fluorescence/phase contrast microscopic analysis; format: functional, cell-based
[27] = test system: MDA-MB-231; test: Induction of morphological changes in human MDA-MB-231 cells assessed as formation of atypical cell clusters at 4.4 uM after 72 hrs by acridine orange/ethidium bromide double staining-based fluorescence/phase contrast microscopic analysis; format: functional
[28] = test system: MDA-MB-231; test: Induction of morphological changes in human MDA-MB-231 cells assessed as reduction in number of cells at 63 uM after 48 hrs by acridine orange/ethidium bromide double staining-based fluorescence/phase contrast microscopic analysis; format: functional, cell-based
[29] = test system: MDA-MB-231; test: Induction of morphological changes in human MDA-MB-231 cells assessed as reduction in number of cells at 63 uM after 72 hrs by acridine orange/ethidium bromide double staining-based fluorescence/phase contrast microscopic analysis; format: functional, cell-based
[30] = test system: MDA-MB-231; test: Induction of morphological changes in human MDA-MB-231 cells assessed as cells with irregular shape at 63 uM after 72 hrs by acridine orange/ethidium bromide double staining-based fluorescence/phase contrast microscopic analysis; format: functional, cell-based
[31] = test system: MDA-MB-231; test: Induction of morphological changes in human MDA-MB-231 cells assessed as loss of cell cell interaction at 63 uM after 72 hrs by acridine orange/ethidium bromide double staining-based fluorescence/phase contrast microscopic analysis; format: functional
[32] = test system: MDA-MB-231; test: Induction of morphological changes in human MDA-MB-231 cells assessed as loss of cell adhesion at 63 uM after 72 hrs by acridine orange/ethidium bromide double staining-based fluorescence/phase contrast microscopic analysis; format: functional
[33] = test system: MDA-MB-231; test: Induction of apoptosis in human MDA-MB-231 cells assessed as chromatin condensation at 63 uM after 48 hrs by acridine orange/ethidium bromide double staining-based fluorescence/phase contrast microscopic analysis; format: functional, cell-based
[34] = test system: MDA-MB-231; test: Induction of apoptosis in human MDA-MB-231 cells assessed as nuclei fragmentation at 63 uM after 48 hrs by acridine orange/ethidium bromide double staining-based fluorescence/phase contrast microscopic analysis; format: functional, cell-based
[35] = test system: MDA-MB-231; test: Induction of apoptosis in human MDA-MB-231 cells assessed as appearance of apoptotic bodies at 63 uM after 48 hrs by acridine orange/ethidium bromide double staining-based fluorescence/phase contrast microscopic analysis; format: functional, cell-based
[36] = test system: MDA-MB-231; test: Induction of apoptosis in human MDA-MB-231 cells assessed as chromatin condensation at 63 uM after 72 hrs by acridine orange/ethidium bromide double staining-based fluorescence/phase contrast microscopic analysis; format: functional, cell-based
[37] = test system: MDA-MB-231; test: Induction of apoptosis in human MDA-MB-231 cells assessed as nuclei fragmentation at 63 uM after 72 hrs by acridine orange/ethidium bromide double staining-based fluorescence/phase contrast microscopic analysis; format: functional, cell-based
[38] = test system: MDA-MB-231; test: Induction of apoptosis in human MDA-MB-231 cells assessed as appearance of apoptotic bodies at 63 uM after 72 hrs by acridine orange/ethidium bromide double staining-based fluorescence/phase contrast microscopic analysis; format: functional, cell-based
[39] = test system: MDA-MB-231; test: Induction of apoptosis in human MDA-MB-231 cells assessed as activation of caspase-3 at 63 uM after 48 hrs by flow cytometry; format: functional, cell-based
[40] = test system: MDA-MB-231; test: Induction of apoptosis in human MDA-MB-231 cells assessed as activation of caspase-3 at 63 uM after 72 hrs by flow cytometry relative to untreated control; format: functional
[41] = test system: MDA-MB-231; test: Induction of apoptosis in human MDA-MB-231 cells assessed as increase in Bax gene expression at 63 uM after 48 hrs by RT-qPCR analysis; format: functional, cell-based
[42] = test system: MDA-MB-231; test: Induction of apoptosis in human MDA-MB-231 cells assessed as reduction in bcl2 gene expression at 63 uM after 48 hrs by RT-qPCR analysis; format: functional, cell-based
[43] = test system: MDA-MB-231; test: Induction of apoptosis in human MDA-MB-231 cells assessed as effect on BIRC5 mRNA expression at 63 uM after 48 hrs by RT-qPCR analysis; format: functional, cell-based
[44] = test system: MDA-MB-231; test: Induction of apoptosis in human MDA-MB-231 cells assessed as increase in Bax/Bcl2 gene expression at 63 uM after 48 hrs by RT-qPCR analysis; format: functional, cell-based

O=C1C=C[C@@H]2[C@H](c3ccccc3)[C@@H](c3cccc(=O)o3)[C@]2(/C=C/c2ccccc2)O1
GI50 [1]: 69.5 µM
GI50 [2]: 61.7 µM
GI50 [3]: 69.7 µM
GI50 [4]: 50.2 µM
GI50 [5]: 4.42 µM
GI50 at 48 h [6]: 158 µM
selectivity ratio [7]: 2.27
RatioGI50 [8]: 2.55
selectivity ratio [9]: 2.26
selectivity ratio at 48 h [10]: 3.14
selectivity ratio at 48 h [11]: 35.7
viability at 63 µM [12]: 28.4%
Activity [13]: 17%
Activity [14]: 13%
Activity [15]: 2%
viability at 63 µM [16]: 50%
Activity [17]: 11%
Activity [18]: 37%
Activity [19]: 5%
Activity [20]: 56%
Activity [21]: 33%
Activity [22]: Active
Activity [23]: Active
Activity [24]: Active
Activity [25]: Active
Activity [26]: Active
Activity [27]: Active
Activity [28]: Active
Activity [29]: Active
Activity [30]: Active
Activity [31]: Active
Activity [32]: Active
Activity [33]: Active
Activity [34]: Active
Activity [35]: Active
Activity [36]: Active
Activity [37]: Active
Activity [38]: Active
Activity [39]: Active
fold change (FC) [40]: 4
Activity [41]: Active
Activity [42]: inactive
Activity [43]: Active
Activity [44]: Active

O=c1cccc([C@H]2[C@H](c3ccccc3)[C@H](c3cccc(=O)o3)[C@H]2c2ccccc2)o1
GI50 [1]: 96.3 µM
GI50 [2]: 567 µM
GI50 [3]: 88.7 µM
GI50 [4]: 12.2 µM
GI50 [5]: 34.2 µM
GI50 at 48 h [6]: 503 µM
selectivity ratio [7]: 5.22
RatioGI50 [8]: 0.88
selectivity ratio [9]: 5.67
selectivity ratio at 48 h [10]: 41.1
selectivity ratio at 48 h [11]: 14.7

O=c1cccc(/C=C/c2ccccc2)o1
GI50 [1]: 90.4 µM
GI50 [2]: 176 µM
GI50 [3]: 145 µM
GI50 [4]: 107 µM
GI50 [5]: 98 µM
GI50 at 48 h [6]: 1270 µM
selectivity ratio [7]: 14
RatioGI50 [8]: 7.24
selectivity ratio [9]: 8.73
selectivity ratio at 48 h [10]: 11.8
selectivity ratio at 48 h [11]: 12.9

COc1cccc2c1C(=O)c1c(O)c3c(c(O)c1C2=O)C[C@@](O)(C(=O)CO)C[C@@H]3O[C@H]1C[C@H](N)[C@H](O)[C@H](C)O1 [DOXORUBICIN]
GI50 [1]: 0.24 µM
GI50 [2]: 0.16 µM
GI50 [3]: 0.28 µM
GI50 [4]: 0.25 µM
GI50 [5]: 1.84 µM
GI50 at 48 h [6]: 0.28 µM
